Results: PubChem BioAssay (NCI)
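The compound was tested at five concentrations on cells cultured in 96-well plates, with a 48-hour exposure period. GI50 is the concentration that inhibits growth by half. The concentration for full growth arrest is given as TGI.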

Experiments:
Assay in all cases: inhibition of tumour cell growth, NCI panel, 48 h; in the data active means GI50 below about 0.43 µM; inactive means the rest
U251 CNS = test system: U251 CNS
NCI-H522 lung = test system: NCI-H522 lung
SK-MEL-5 melanoma = test system: SK-MEL-5 melanoma
SK-MEL-28 melanoma = test system: SK-MEL-28 melanoma
ACHN renal = test system: ACHN renal
DU-145 prostate = test system: DU-145 prostate
NCI/ADR-RES ovarian = test system: NCI/ADR-RES ovarian
MDA-MB-435 = test system: MDA-MB-435
786-0 renal = test system: 786-0 renal
IGROV1 ovarian = test system: IGROV1 ovarian
A549 NSCLC = test system: A549 NSCLC
BT-549 breast = test system: BT-549 breast
COLO 205 colon = test system: COLO 205 colon
M14 melanoma = test system: M14 melanoma
KM12 colon = test system: KM12 colon
SR leukemia = test system: SR leukemia
HCT-116 colon = test system: HCT-116 colon
SF-295 CNS = test system: SF-295 CNS
K-562 leukemia = test system: K-562 leukemia
SK-MEL-2 melanoma = test system: SK-MEL-2 melanoma
UO-31 renal = test system: UO-31 renal
MDA-MB-231 breast = test system: MDA-MB-231 breast
PC-3 prostate = test system: PC-3 prostate
SW-620 colon = test system: SW-620 colon
TK-10 renal = test system: TK-10 renal
T-47D breast = test system: T-47D breast
RXF 393 renal = test system: RXF 393 renal
HOP-62 NSCLC = test system: HOP-62 NSCLC
OVCAR-4 ovarian = test system: OVCAR-4 ovarian
HCC-2998 colon = test system: HCC-2998 colon
OVCAR-3 ovarian = test system: OVCAR-3 ovarian
EKVX NSCLC = test system: EKVX NSCLC
HCT-15 colon = test system: HCT-15 colon
NCI-H460 lung = test system: NCI-H460 lung
RPMI-8226 leukemia = test system: RPMI-8226 leukemia
CAKI-1 renal = test system: CAKI-1 renal
CCRF-CEM leukemia = test system: CCRF-CEM leukemia
SNB-75 CNS = test system: SNB-75 CNS
HL-60(TB) leukemia = test system: HL-60(TB) leukemia
UACC-257 melanoma = test system: UACC-257 melanoma
UACC-62 melanoma = test system: UACC-62 melanoma
SK-OV-3 ovarian = test system: SK-OV-3 ovarian
SN12C renal = test system: SN12C renal
HOP-92 NSCLC = test system: HOP-92 NSCLC
HS 578T breast = test system: HS 578T breast
LOX IMVI melanoma = test system: LOX IMVI melanoma
SNB-19 CNS = test system: SNB-19 CNS
OVCAR-5 ovarian = test system: OVCAR-5 ovarian
OVCAR-8 ovarian = test system: OVCAR-8 ovarian

Cc1c(-c2ccnc(N)n2)c2c(n1-c1ccccc1)C(=O)c1ccccc1C2=O
97.5 µM: TGI (OVCAR-5 ovarian)
30.7 µM: TGI (SF-295 CNS)
45.8 µM: TGI (KM12 colon)
77.7 µM: TGI (ACHN renal)
66.8 µM: TGI (NCI/ADR-RES ovarian)
60.7 µM: TGI (DU-145 prostate)
30.6 µM: TGI (OVCAR-3 ovarian)
63.3 µM: TGI (MDA-MB-231 breast) | TGI (TK-10 renal)
34.1 µM: TGI (SK-MEL-5 melanoma)
30.4 µM: TGI (HL-60(TB) leukemia)
62.6 µM: TGI (CAKI-1 renal)
56.5 µM: TGI (RXF 393 renal)
inactive: GI50 (U251 CNS) 18.9 µM | GI50 (NCI-H522 lung) 13.2 µM | GI50 (SK-MEL-5 melanoma) 16.2 µM | GI50 (SK-MEL-28 melanoma) 41.8 µM | GI50 (ACHN renal) 19.6 µM | GI50 (DU-145 prostate) 21.1 µM | GI50 (NCI/ADR-RES ovarian) 15.8 µM | GI50 (MDA-MB-435) 25.2 µM | GI50 (786-0 renal) 25.6 µM | GI50 (IGROV1 ovarian) 4.86 µM | GI50 (A549 NSCLC) 36.1 µM | GI50 (BT-549 breast) 6.3 µM | GI50 (COLO 205 colon) 44 µM | GI50 (M14 melanoma) 46.8 µM | GI50 (KM12 colon) 16.8 µM | GI50 (SR leukemia) 1.01 µM | GI50 (HCT-116 colon) 14.3 µM | GI50 (SF-295 CNS) 14 µM | GI50 (K-562 leukemia) 3.78 µM | GI50 (SK-MEL-2 melanoma) 22.9 µM | GI50 (UO-31 renal) 13.5 µM | GI50 (MDA-MB-231 breast) 19.7 µM | GI50 (PC-3 prostate) > 100 µM | GI50 (SW-620 colon) 38.9 µM | GI50 (TK-10 renal) 20.2 µM | GI50 (T-47D breast) 51.4 µM | GI50 (RXF 393 renal) 22.1 µM | GI50 (HOP-62 NSCLC) 6.61 µM | GI50 (OVCAR-4 ovarian) 58.3 µM | GI50 (HCC-2998 colon) 19.7 µM | GI50 (OVCAR-3 ovarian) 12.3 µM | GI50 (EKVX NSCLC) 21.5 µM | GI50 (HCT-15 colon) 16 µM | GI50 (NCI-H460 lung) 17.6 µM | GI50 (RPMI-8226 leukemia) > 100 µM | GI50 (CAKI-1 renal) 17 µM | GI50 (CCRF-CEM leukemia) > 100 µM | GI50 (SNB-75 CNS) 30 µM | GI50 (HL-60(TB) leukemia) 7.83 µM | GI50 (UACC-257 melanoma) 34.2 µM | GI50 (UACC-62 melanoma) 27.2 µM | GI50 (SK-OV-3 ovarian) 39.3 µM | GI50 (SN12C renal) 14.7 µM | GI50 (HOP-92 NSCLC) > 100 µM | GI50 (HS 578T breast) 22.4 µM | GI50 (LOX IMVI melanoma) 10.6 µM | GI50 (SNB-19 CNS) 70 µM | GI50 (OVCAR-5 ovarian) 23.4 µM | GI50 (OVCAR-8 ovarian) 17.2 µM
77.2 µM: TGI (UACC-62 melanoma)
63.7 µM: TGI (EKVX NSCLC)
60 µM: TGI (NCI-H460 lung)
91.9 µM: TGI (UACC-257 melanoma)
37.6 µM: TGI (HOP-62 NSCLC)
37.2 µM: TGI (NCI-H522 lung)
60.8 µM: TGI (HS 578T breast)
> 100 µM: TGI (SK-MEL-28 melanoma) | TGI (786-0 renal) | TGI (A549 NSCLC) | TGI (COLO 205 colon) | TGI (M14 melanoma) | TGI (HCT-116 colon) | TGI (PC-3 prostate) | TGI (SW-620 colon) | TGI (T-47D breast) | TGI (OVCAR-4 ovarian) | TGI (HCT-15 colon) | TGI (RPMI-8226 leukemia) | TGI (CCRF-CEM leukemia) | TGI (SNB-75 CNS) | TGI (SK-OV-3 ovarian) | TGI (HOP-92 NSCLC) | TGI (SNB-19 CNS) | TGI (OVCAR-8 ovarian)
57.2 µM: TGI (SK-MEL-2 melanoma)
25.5 µM: TGI (K-562 leukemia)
67.3 µM: TGI (MDA-MB-435)
39 µM: TGI (IGROV1 ovarian)
29.9 µM: TGI (BT-549 breast)
51.1 µM: TGI (UO-31 renal)
3.84 µM: TGI (SR leukemia)
74.9 µM: TGI (U251 CNS)
46.5 µM: TGI (HCC-2998 colon)
24.2 µM: TGI (LOX IMVI melanoma)
53.8 µM: TGI (SN12C renal)
